Here are results for ten compounds from patent publication US8084649B2, “Herbicides” (Syngenta Crop Protection, inc., priority 2007, dated 2011).

What all share (assay type): in vivo
For assay [1], the system named is Avena fatua (AVEFA). The assay is described as follows: Post-emergence herbicidal activity, glasshouse pot test. The following applies: Avena fatua, evaluated after 14 or 15 days, read-out: Post-emergence activity, AVEFA (100=total damage to plant; 0=no damage to plant); for pest or weed control at 125 g/ha: rate 125 g/ha; for pest or weed control at 500 g/ha: rate 500 g/ha. The essentials: (§1)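 Post-emergence spray on 10-day-old potted plants (sterilised standard soil, controlled glasshouse conditions); spray solution from technical compound in acetone with Emulsogen EL, N-methylpyrrolidone, dipropylene glycol monomethyl ether and X-77. Rated 14–15 d later, 0 = no damage, 100 = total damage.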

Assay [2] relates to Setaria faberi (SETFA). The assay is described as above. Particulars: Setaria faberi, evaluated after 14 or 15 days, read-out: Post-emergence activity, SETFA (100=total damage to plant; 0=no damage to plant); for pest or weed control at 125 g/ha: rate 125 g/ha; for pest or weed control at 500 g/ha: rate 500 g/ha. The essentials: as §1
For assay [3], the system named is Alopecurus myosuroides (ALOMY). The assay is described as above. The following applies: Alopecurus myosuroides, evaluated after 14 or 15 days, read-out: Post-emergence activity, ALOMY (100=total damage to plant; 0=no damage to plant); for pest or weed control at 125 g/ha: rate 125 g/ha; for pest or weed control at 500 g/ha: rate 500 g/ha. The essentials: as §1
The subject of assay [4] is Digitaria sanguinalis (DIGSA). Described as above. Particulars: Digitaria sanguinalis, evaluated after 14 or 15 days, read-out: Post-emergence activity, DIGSA (100=total damage to plant; 0=no damage to plant); for pest or weed control at 125 g/ha: rate 125 g/ha; for pest or weed control at 500 g/ha: rate 500 g/ha. The method in brief: as §1
Assay [5] relates to Lolium perenne (LOLPE). Described as above. The following applies: Lolium perenne, evaluated after 14 or 15 days, read-out: Post-emergence activity, LOLPE (100=total damage to plant; 0=no damage to plant); for pest or weed control at 125 g/ha: rate 125 g/ha; for pest or weed control at 500 g/ha: rate 500 g/ha. The essentials:
as §1

In assay [6] the test system is Echinochloa crus-galli (ECHCG). The assay is described as above. The following applies: Echinochloa crus-galli, evaluated after 14 or 15 days, read-out: Post-emergence activity, ECHCG (100=total damage to plant; 0=no damage to plant); for pest or weed control at 125 g/ha: rate 125 g/ha; for pest or weed control at 500 g/ha: rate 500 g/ha. The essentials: as §1
For assay [7], the system named is Avena fatua (AVEFA). The assay is described as follows: Pre-emergence herbicidal activity, glasshouse pot test. Particulars: Avena fatua, 480 h, rate 500 g/ha, evaluated after 20 days, read-out: Pre-emergence activity, AVEFA (100=total damage to plant; 0=no damage to plant). The essentials:
(§2)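 Seeds were sown in sterilised standard soil in pots and sprayed one day later with an aqueous dilution of the active ingredient formulated in acetone plus Emulsogen EL/N-methylpyrrolidone/dipropylene glycol monomethyl ether/X-77. Plants grew under optimum greenhouse conditions, and damage was rated visually after 20 days (0 = none, 100 = total).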

Assay [8] concerns Setaria faberi (SETFA). Described as above. Particulars: Setaria faberi, 480 h, rate 500 g/ha, evaluated after 20 days, read-out: Pre-emergence activity, SETFA (100=total damage to plant; 0=no damage to plant). The essentials: as §2
The subject of assay [9] is Alopecurus myosuroides (ALOMY). Described as above. The following applies: Alopecurus myosuroides, 480 h, rate 500 g/ha, evaluated after 20 days, read-out: Pre-emergence activity, ALOMY (100=total damage to plant; 0=no damage to plant). The essentials:
as §2

In assay [10] the test system is Digitaria sanguinalis (DIGSA). The assay is described as above. The following applies: Digitaria sanguinalis, 480 h, rate 500 g/ha, evaluated after 20 days, read-out: Pre-emergence activity, DIGSA (100=total damage to plant; 0=no damage to plant). The essentials: as §2
For assay [11], the system named is Lolium perenne (LOLPE). Described as above. Particulars: Lolium perenne, 480 h, rate 500 g/ha, evaluated after 20 days, read-out: Pre-emergence activity, LOLPE (100=total damage to plant; 0=no damage to plant). The essentials:
as §2

In assay [12] the test system is Echinochloa crus-galli (ECHCG). The description is as above. Particulars: Echinochloa crus-galli, 480 h, rate 500 g/ha, evaluated after 20 days, read-out: Pre-emergence activity, ECHCG (100=total damage to plant; 0=no damage to plant). The method in brief: as §2

For `CCCCCCCCCCCC(=O)OC1=C(c2c(CC)cc(C)cc2CC)C(=O)CC2(CCOCC2)C1` [Compound P44], the pest or weed control at 125 g/ha was 90% with Avena fatua (AVEFA) [1]; 90% in the assay on Setaria faberi (SETFA) [2]; 80% in [3]; 100% in assay [4]; 90% in the assay with Lolium perenne (LOLPE) [5]; 90% in [6]. Besides, the pest or weed control at 500 g/ha (with Avena fatua (AVEFA) [7]; in the assay on Setaria faberi (SETFA) [8]; in assay [9]; in assay [10]; with Lolium perenne (LOLPE) [11]; in assay [12]) was 100% each time.

Consider `CCc1cc(C)cc(CC)c1C1=C(OC(=O)C(C)(C)C)CC2(CCCSC2)CC1=O` (stereo not drawn) [Compound P59], for which the pest or weed control at 125 g/ha worked out at 0% in the assay on Avena fatua (AVEFA) [1]; 60% in the assay on Setaria faberi (SETFA) [2]; 40% in assay [3]; 80% in assay [4]; 20% with Lolium perenne (LOLPE) [5]; 30% in assay [6]. The pest or weed control at 500 g/ha in the assay on Avena fatua (AVEFA) [7] was 10%; in the assay on Setaria faberi (SETFA) [8], 70%; in assay [9] it was 20%; in assay [10], 100%; in the assay with Lolium perenne (LOLPE) [11], 10%; in assay [12] it was 50%.

`CCc1cc(C)cc(CC)c1C1=C(O)CC(COCCOC)CC1=O` (stereo not drawn) [Compound T24]: the pest or weed control at 500 g/ha in the assay with Avena fatua (AVEFA) [1] came to 80%; with Setaria faberi (SETFA) [2] it was 100%; in [3], 90%; in assay [4], 90%; in the assay with Lolium perenne (LOLPE) [5], 90%; in assay [6], 100%. For the same compound, the pest or weed control at 500 g/ha in the assay with Avena fatua (AVEFA) [7] was found to be 80%; in the assay on Setaria faberi (SETFA) [8], 100%; in [9], 100%; in [10], 100%; with Lolium perenne (LOLPE) [11], 100%; in assay [12] it was 100%.

As for `CCc1cc(C)cc(CC)c1C1=C(O)CC(C2(SC)CCC2)CC1=O` (stereo not drawn) [Compound T25], the pest or weed control at 500 g/ha in the assay with Avena fatua (AVEFA) [1] came to 100%; in the assay with Setaria faberi (SETFA) [2], 100%; in assay [3], 100%; in [4], 100%; in the assay with Lolium perenne (LOLPE) [5], 90%; in [6] it was 80%. For the same compound, the pest or weed control at 500 g/ha (in the assay on Avena fatua (AVEFA) [7]; with Setaria faberi (SETFA) [8]; in [9]; in [10]; with Lolium perenne (LOLPE) [11]; in [12]) was 100% each time.

In the case of `Cc1cc(C)c(C2=C(O)CC3(CCSCC3)CC2=O)c(C)c1` [Compound T6], the pest or weed control at 500 g/ha in the assay with Avena fatua (AVEFA) [1] amounted to 10%; with Setaria faberi (SETFA) [2] it was 80%; in [3], 20%; in assay [4], 90%; in the assay on Lolium perenne (LOLPE) [5] it was 10%; in assay [6], 80%. Moreover, the pest or weed control at 500 g/ha is 30% in the assay on Avena fatua (AVEFA) [7]; 10% with Setaria faberi (SETFA) [8]; 20% in assay [9]; 10% in assay [10]; 0% in the assay on Lolium perenne (LOLPE) [11]; 10% in [12].

Take `CCCCCCCCCCCCCCCC(=O)OC1=C(c2c(CC)cc(C)cc2CC)C(=O)CC2(CCOCC2)C1` [Compound P45]: the pest or weed control at 125 g/ha with Avena fatua (AVEFA) [1] was 60%; in the assay with Setaria faberi (SETFA) [2], 10%; in assay [3], 30%; in assay [4], 20%; with Lolium perenne (LOLPE) [5], 0%; in assay [6], 10%. Moreover, the pest or weed control at 500 g/ha stood at 100% with Avena fatua (AVEFA) [7]; 100% with Setaria faberi (SETFA) [8]; 80% in [9]; 100% in assay [10]; 100% with Lolium perenne (LOLPE) [11]; 100% in assay [12].

For `CCc1cc(C)cc(CC)c1C1=C(O)CC(CC(C)SC)CC1=O` (stereo not drawn) [Compound T17], the pest or weed control at 500 g/ha came out at 90% in the assay on Avena fatua (AVEFA) [1]; 90% in the assay on Setaria faberi (SETFA) [2]; 0% in assay [3]; 100% in assay [4]; 100% in the assay with Lolium perenne (LOLPE) [5]; 90% in assay [6]. The pest or weed control at 500 g/ha was determined as 90% in the assay on Avena fatua (AVEFA) [7]; 100% in the assay on Setaria faberi (SETFA) [8]; 90% in assay [9]; 100% in assay [10]; 100% in the assay with Lolium perenne (LOLPE) [11]; 100% in assay [12].

On to `CCc1cc(C)cc(CC)c1C1=C(OC(=O)CC(C)C)CC2(CCOCC2)CC1=O` [Compound P5], for which the pest or weed control at 125 g/ha in the assay with Avena fatua (AVEFA) [1] came to 100%; in the assay with Setaria faberi (SETFA) [2], 90%; in [3], 100%; in assay [4] it was 100%; with Lolium perenne (LOLPE) [5], 100%; in assay [6], 100%. Besides, the pest or weed control at 500 g/ha (in the assay with Avena fatua (AVEFA) [7]; in the assay on Setaria faberi (SETFA) [8]; in assay [9]; in [10]; with Lolium perenne (LOLPE) [11]; in assay [12]) was 100% throughout.

Turning to `CCc1cc(C)cc(CC)c1C1=C(OC(=O)Cc2ccc(F)cc2)CC2(CCOCC2)CC1=O` [Compound P7], the pest or weed control at 125 g/ha in the assay with Avena fatua (AVEFA) [1] worked out at 80%; with Setaria faberi (SETFA) [2], 80%; in assay [3], 80%; in [4] it was 80%; with Lolium perenne (LOLPE) [5], 100%; in assay [6] it was 80%. The pest or weed control at 500 g/ha with Avena fatua (AVEFA) [7] is 80%; in the assay on Setaria faberi (SETFA) [8] it was 100%; in assay [9], 40%; in assay [10], 100%; with Lolium perenne (LOLPE) [11], 100%; in [12], 70%.

Regarding `CCc1cc(C)cc(C)c1C1=C(O)CC(CCSC)CC1=O` (stereo not drawn) [Compound T13], the pest or weed control at 500 g/ha with Avena fatua (AVEFA) [1] came to 80%; in the assay on Setaria faberi (SETFA) [2], 90%; in assay [3], 90%; in assay [4] it was 100%; in the assay on Lolium perenne (LOLPE) [5], 80%; in assay [6], 90%. The pest or weed control at 500 g/ha stood at 70% in the assay on Avena fatua (AVEFA) [7]; 80% with Setaria faberi (SETFA) [8]; 100% in assay [9]; 100% in [10]; 100% in the assay with Lolium perenne (LOLPE) [11]; 80% in [12].
